Assay results: patent publication US20240309043A1, “THERAPEUTICALLY ACTIVE STEROIDAL DERIVATIVES” (Organon R&D Finland Ltd., priority 2017, published 2024)

Assays:
Assay type in all cases: biochemical
[1] = tested on: HSD1 enzyme that is expressed in rabbit placenta tissue; experiment: Inhibition of E1 to E2 conversion in rabbit placenta tissue homogenate; conditions: inhibitor 100 nM, 30 nM estrone, 30 min
Method: The assay is based on an enzymatic reaction where HSD1 enzyme that is expressed in rabbit placenta tissue converts its natural substance estrone (E1) to estradiol (E2) in the presence of a co-factor β-NADPH.
Homogenization of rabbit placenta tissue: Weight a piece of the frozen tissue into a Precellys ck28 bead tube. Add buffer solution (20 mM KH2PO4 with 1 mM EDTA, pH 7,4) in 1:2 ratio (e.g. 300 mg of tissue:600 μl reaction buffer solution). Insert the bead tubes to homogenizer and homogenize 2×30 s. 6000 rpm. Centrifugated 5 min., 2600 rpm at +4° C. and collect supernatant. Aliquots of homogenate are stored in −80° C.
Assay—Inhibition of E1 to E2 conversion in rabbit placenta tissue: The reaction takes place in a buffer solution (20 mM KH2PO4 with 1 mM EDTA, pH 7,4), including appropriate amount of rabbit placenta homogenate, co-factor (1 mM β-NADPH), Substrate (30 nM estrone), labelled substrate as tracer (5 nM [^3H]-estrone). During a 30-minute incubation part of the estrone is converted to estradiol. The reaction is stopped by lowering the pH to 1 with 10% trichloro acetic acid (TCA). The substrate and conversion products are analyzed by HPLC and a Scintillation counter analyzer. Total radioactivity for estrone and estradiol were determined in each sample and percent conversion of estrone to estradiol was calculated according to the following formula:
Percent inhibition was calculated flowingly: % inhibition=100−% conversion.

[2] = biological target: T1, recombinant human 17β-HSD1 (Homo sapiens, UniProt P14061); experiment: Inhibition of recombinant human 17β-HSD1; conditions: inhibitor 100 nM; 30 nM estrone, 1 mM NADPH, 30 min RT
T1 construct: made in house; host or cells: Sd9 (Sf9) insect cells, baculovirus (Bac to Bac Expression System)
T1 sequence (P14061 1-328): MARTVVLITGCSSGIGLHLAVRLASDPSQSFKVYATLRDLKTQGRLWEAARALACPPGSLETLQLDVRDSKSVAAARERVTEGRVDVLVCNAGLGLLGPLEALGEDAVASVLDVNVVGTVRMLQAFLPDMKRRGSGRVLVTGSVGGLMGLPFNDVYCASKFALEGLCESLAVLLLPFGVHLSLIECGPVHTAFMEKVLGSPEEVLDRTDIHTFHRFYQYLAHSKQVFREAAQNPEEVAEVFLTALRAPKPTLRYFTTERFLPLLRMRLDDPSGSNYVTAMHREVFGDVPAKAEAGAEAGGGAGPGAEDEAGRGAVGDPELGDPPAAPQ
Method: 17β-HSD1 production and isolation: Recombinant baculovirus was generated by the “Bac to Bac Expression System” (Invitrogen). Recombinant bacmid was transfected to Sd9 insect cells using “Cellfectin Reagent” (Invitrogen). 60 h later cells were harvested; the microsomal fraction was isolated as described by Puranen, T. J., Poutanen, M. H., Peltoketo, H. E., Vihko, P. T. and Vihko, R. K. (1994) Site-directed mutagenesis of the putative active site of human 17 β-hydroxysteroid dehydrogenase type 1. Biochem. J. 304: 289-293. Aliquots were stored frozen until determination of enzymatic activity.
Assay—Inhibition of recombinant human 17β-HSD1: Recombinant protein (1 μg/ml) was incubated in 20 mM KH2PO4 pH 7.4 with 30 nM estrone (including 800 000 cpm/ml of ^3H-estrone) and 1 mM NADPH for 30 min at RT, in the presence of the potential inhibitor at concentrations 1 μM or 0.1 μM. Inhibitor stock solutions were prepared in DMSO. Final concentration of DMSO was adjusted to 1% in all samples. The enzyme reaction was stopped by addition of 10% trichloroacetic acid (final concentration). Samples were centrifuged in a microtiter plate at 4000 rpm for 10 min. Supernatants were applied to reverse phase HPLC on a Waters Symmetry C18 column, equipped with a Waters Sentry Guard column. Isocratic HPLC runs were performed at RT at a flow rate of 1 ml/min in acetonitrile:water 48:52 as running solvent. Radioactivity was monitored in the eluate by a Scintillation Analyzer. Total radioactivity for estrone and estradiol were determined in each sample and percent conversion of estrone to estradiol was calculated according to the following formula:
(§1) [formula] Percent inhibition was calculated flowingly: % inhibition=100−% conversion

[3] = biological target: T2, recombinant human 17β-HSD2 (Homo sapiens, UniProt P37059); experiment: Inhibition of recombinant human 17β-HSD2; conditions: inhibitor 1 μM; 50 nM estradiol, 1 mM NADH, 30 min RT
T2 construct: made in house; host or cells: Sd9 (Sf9) insect cells, baculovirus (Bac to Bac Expression System)
T2 sequence (P37059 1-387): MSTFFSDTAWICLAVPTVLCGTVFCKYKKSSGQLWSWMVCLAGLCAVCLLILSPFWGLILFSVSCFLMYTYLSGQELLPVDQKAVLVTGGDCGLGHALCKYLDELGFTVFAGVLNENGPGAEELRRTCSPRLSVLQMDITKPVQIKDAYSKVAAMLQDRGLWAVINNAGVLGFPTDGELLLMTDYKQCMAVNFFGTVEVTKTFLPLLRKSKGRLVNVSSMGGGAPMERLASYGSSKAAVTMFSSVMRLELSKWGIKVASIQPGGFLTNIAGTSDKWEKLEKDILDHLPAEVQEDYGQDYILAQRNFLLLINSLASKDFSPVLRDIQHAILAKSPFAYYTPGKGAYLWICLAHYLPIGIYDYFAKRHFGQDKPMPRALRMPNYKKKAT
Method: 17β-HSD2 production and isolation: Similarly to 17β-HSD1 the Recombinant baculovirus was generated by the “Bac to Bac Expression System” (Invitrogen). Recombinant bacmid was transfected to Sd9 insect cells using “Cellfectin Reagent” (Invitrogen). 60 h later cells were harvested and supernatant were fractionated by the following protocol: • cells were dissolved into 40 ml of A-buffer (40 mM TRIS, pH 8.0, 20% glycerol, 20 μM NAD, 0.4 mM PMSF, 150 mM NaCl, 0.5% dodecyl-β-maltoside+protease inhibitor cocktail) • cells were sonicated • lysate was incubated on ice for 15 min • lysate was centrifuged 5000 rpm 15 min, +4° C. • centrifugation of the supernatant 180 000 g 30 min, +4° C. • pellet was dissolved into 8 ml of A-buffer • not resuspended material was removed by centrifugation 5000 rpm min, +4° C. • the clear supernatant was divided into 100 μl aliquots and were stored frozen until determination of enzymatic activity.
The amount of 17β-HSD2 was analysed by immunoblotting and total protein concentration of each extract batch was determined.
Assay—Inhibition of recombinant human 17β-HSD2: Recombinant protein (4 μg/ml) was incubated in 20 mM KH2PO4 pH 8.5 with 50 nM estradiol (including 800 000 cpm/ml of ^3H-estradiol) and 1 mM NADH for 30 min at RT, in the presence of the potential inhibitor at concentrations 1 μM or 0.1 μM. Inhibitor stock solutions were prepared in DMSO. Final concentration of DMSO was adjusted to 1% in all samples. The enzyme reaction was stopped by addition of 10% trichloroacetic acid (final concentration). Samples were centrifuged in a microtiter plate at 4000 rpm for 10 min. Supernatants were applied to reverse phase HPLC on a Waters Symmetry C18 column, equipped with a Waters Sentry Guard column. Isocratic HPLC runs were performed at RT at a flow rate of 1 ml/min in acetonitrile:water 48:52 as running solvent. Radioactivity was monitored in the eluate by a Scintillation Analyzer. Total radioactivity for estrone and estradiol were determined in each sample and percent conversion of estradiol to estrone was calculated according to the following formula:
as §1

Row | SMILES | Rabbit placenta inhibition % @100 nM [1] | inhibition at 0.1 µM [2] | inhibition at 1 µM [3]
1 | CCN(CC)C(=O)CC[C@@H]1C/C(=N\O)[C@@]2(C)CCC3c4cccc(F)c4CCC3C12 (stereo partly drawn) [Compound 24, N,N-diethyl-3-((13S,15R,E)-4-fluoro-17-(hydroxyimino)-13-methyl-7,8,9,11,12,13,14,15,16,17-decahydro-6H-cyclopenta[a]phenanthren-15-yl)propanamide] | 18% | 85% | 12%
2 | C[C@]12CCC3c4ccc(F)cc4CCC3C1[C@H](CCC(=O)Nc1ccc(F)cn1)C/C2=N\O (stereo partly drawn) [Compound 26, 3-((13S,15R,E)-3-fluoro-17-(hydroxyimino)-13-methyl-7,8,9,11,12,13,14,15,16,17-decahydro-6H-cyclopenta[a]phenanthren-15-yl)-N-(5-fluoropyridin-2-yl)propanamide] | 10% | 49% | 8%
3 | COc1ccc(NC(=O)CC[C@@H]2C/C(=N\O)[C@@]3(C)CCC4c5ccc(F)cc5CCC4C23)nc1 (stereo partly drawn) [Compound 28, 3-((13S,15R,E)-3-fluoro-17-(hydroxyimino)-13-methyl-7,8,9,11,12,13,14,15,16,17-decahydro-6H-cyclopenta[a]phenanthren-15-yl)-N-(5-methoxypyridin-2-yl)propanamide] | 48% | 74% | 7%
4 | COc1ccc(NC(=O)CC[C@@H]2C/C(=N\O)[C@@]3(C)CCC4c5ccc(F)cc5CCC4C23)nn1 (stereo partly drawn) [Compound 30, 3-((13S,15R,E)-3-fluoro-17-(hydroxyimino)-13-methyl-7,8,9,11,12,13,14,15,16,17-decahydro-6H-cyclopenta[a]phenanthren-15-yl)-N-(6-methoxypyridazin-3-yl)propanamide] | 79% | 40% | 3%
5 | Cc1ccc(NC(=O)CC[C@@H]2C/C(=N\O)[C@@]3(C)CCC4c5ccc(F)cc5CCC4C23)nn1 (stereo partly drawn) [Compound 32, 3-((13S,15R,E)-3-fluoro-17-(hydroxyimino)-13-methyl-7,8,9,11,12,13,14,15,16,17-decahydro-6H-cyclopenta[a]phenanthren-15-yl)-N-(6-methylpyridazin-3-yl)propanamide] | 55% | 35% | 9%
6 | CN(C(=O)CC[C@@H]1C/C(=N\O)[C@@]2(C)CCC3c4ccc(F)cc4CCC3C12)C1COC1 (stereo partly drawn) [Compound 36, 3-((13S,15R,E)-3-fluoro-17-(hydroxyimino)-13-methyl-7,8,9,11,12,13,14,15,16,17-decahydro-6H-cyclopenta[a]phenanthren-15-yl)-N-methyl-N-(oxetan-3-yl)propanamide] | 12% | 33% | 10%
7 | CCN(CC)C(=O)CC[C@@H]1C/C(=N\O)[C@@]2(C)CCC3c4ccc(F)cc4CCC3C12 (stereo partly drawn) [Compound 40, N,N-diethyl-3-((13S,15R,E)-3-fluoro-17-(hydroxyimino)-13-methyl-7,8,9,11,12,13,14,15,16,17-decahydro-6H-cyclopenta[a]phenanthren-15-yl)propanamide] | 6% | 46% | 6%
8 | C[C@]12CCC3c4ccc(Cl)cc4CCC3C1[C@H](CCC(=O)Nc1cccnn1)C/C2=N\O (stereo partly drawn) [Compound 44, 3-((13S,15R,E)-3-chloro-17-(hydroxyimino)-13-methyl-7,8,9,11,12,13,14,15,16,17-decahydro-6H-cyclopenta[a]phenanthren-15-yl)-N-(pyridazine-3-yl)propanamide] | 11% | 20% | 2%
9 | C[C@]12CCC3c4ccc(Cl)cc4CCC3C1[C@H](CCC(=O)NC1=NCCS1)C/C2=N\O (stereo partly drawn) [Compound 46, 3-((13S,15R,E)-3-chloro-17-(hydroxyimino)-13-methyl-7,8,9,11,12,13,14,15,16,17-decahydro-6H-cyclopenta[a]phenanthren-15-yl)-N-(4,5-dihydrothiazol-2-yl)propanamide] | 50% | 55% | 0%
10 | C[C@]12CCC3c4ccc(Cl)cc4CCC3C1[C@H](CCC(=O)N1CCC3(CCOCC3)C1)C/C2=N\O (stereo partly drawn) [Compound 48, 3-((13S,15R,E)-3-chloro-17-(hydroxyimino)-13-methyl-7,8,9,11,12,13,14,15,16,17-decahydro-6H-cyclopenta[a]phenanthren-15-yl)-1-(8-oxa-2-azaspiro[4.5]decan-2-yl)propan-1-one] | 1% | 30% | -2%
11 | COc1ccc(NC(=O)CC[C@@H]2C/C(=N\O)[C@@]3(C)CCC4c5ccc(Cl)cc5CCC4C23)nn1 (stereo partly drawn) [Compound 50, 3-((13S,15R,E)-3-chloro-17-(hydroxyimino)-13-methyl-7,8,9,11,12,13,14,15,16,17-decahydro-6H-cyclopenta[a]phenanthren-15-yl)-N-(6-methoxypyridazin-3-yl)propanamide] | 42% | 37% | -2%
